Data as given in publication PMC12048343, “Discovery of a small molecule secreted clusterin enhancer that improves memory in Alzheimer’s disease mice” (npj Drug Discovery, 2025).

Legend:
hERG potassium channel = hERG potassium channel (Homo sapiens, UniProt Q12809); experiment: hERG potassium channel inhibition assay
[1] = tested on: ApoE4TR-5XFAD murine model of AD; experiment: Subchronic two-week oral study in ApoE4TR-5XFAD mice (hippocampus biomarkers, proteomics); assay type: in vivo, mouse; conditions: oral 15 mg/kg BID, two weeks, vs vehicle
Method: Brain tissue was homogenized and diluted to a protein concentration of 50 ng/mL. The Mouse Clusterin ELISA Kit (Cat#ab199079, Abcam) was performed according to the manufacturer’s protocol.
(§1) Additional assays: The Aβ1-42 ELISA assay was performed on hippocampus brain homogenate according to the manufacturer’s protocol (Fisher KHB3441). Humanin in cell culture lysate was quantify by ELISA assay, according to the manufacturer’s protocol (MyBioSourc Cat# MBS7607247). SirT1 in cell culture lysate was quantify using AlphaLISA. Cell lysate (2 μL) was added to a 384-well proxy plate preloaded with 2 µL anti-SiRT1 antibody mixture (ABCAM catalog AB110304, biotinylated (10 nM) and ABCAM catalog AB104833, acceptor bead conjugated (50 µg/mL, Cat#6772001, Perkin Elmer)) was added and incubated at room temperature for 1 hour. AlphaScreen Streptavidin Donor beads (2 µL, Cat#6760002S, Perkin Elmer) were added, incubated for an additional 30 min in the dark, and the plate was read in an Envision plate reader.
All procedures were performed in accordance with protocols approved by the UCLA Institutional Animal Care and Use Committee (IACUC) and guidelines of the NIH. Mouse strains used were C57BL/6 J (Black 6, Jackson Laboratory; JAX stock #000564). All non-AD mice were 4 to 5 mo old at the time of the experiments. […]

HEPG2 cells = experiment: Cytotoxicity, MultiTox-Fluor (hepatotoxicity); assay type: cell-based; conditions: HEPG2, up to 50 µM
Source text: (§2) Cell viability and toxicity were simultaneously assessed using the MultiTox-Fluor Multiplex Cytotoxicity Assay (Cat# PRG9200, Fisher Scientific) according to the manufacturer’s protocol.

[2] = tested on: sirtuin 1 (SirT1) expression in SH-SY5Y cells; experiment: SirT1 AlphaLISA in SH-SY5Y cell lysate; assay type: cell-based, human; conditions: 200 nM, 24 h
Method: as §1

3xTg-AD mice = experiment: Barnes maze assessment of spatial learning and memory; assay type: in vivo, mouse; conditions: oral 15 mg/kg BID, 6 weeks; significant on Day 3 of training and in the 48-hour probe
Method: Male and female 3-month-old mice were administered DDL-357 via pipette feeding at a dose of 15 mg/kg BID (30 mg/kg/day). Mice were weighed before the first dose for the calculation of volume to be administered. The formulation used comprised DDL-357 as a 15 mg/mL solution dissolved in a strawberry flavored solution (propylene glycol/water/strawberry syrup, 2/1/1, v/v/v). ApoE4TR-5XFAD mice (7 mice, 3 females & 4 males-vehicle; 7 mice, 4females and 3 males – DDL357) were dosed for two weeks. 3xTg-AD mice (13 mice, 5 females & 8 males-vehicle; 13 mice, 4 females and 9 males- DDL357) were dosed for six weeks before entering Barnes Maze testing. At end of study, mice brain tissue and plasma were collected after euthanasia and perfusion. […]
Barnes Maze testing was performed as describe by Attar et al. Briefly, in a room with visual cues on the walls, mice are introduced in a circular maze containing 20 holes where 19 holes are closed during training and all 20 holes are closed during the probe trials. […] During the probe days, the target hole is closed, and spatial memory of the mouse is determined during a 90 s probe trial. […] Over the course of the training and probe trials, the software-calculated parameters included, but were not limited to, total distance traveled, speed, number of holes visited, latency to visiting the target/escape hole, percent time spent in the four quadrants of the maze.

HEK 293 T cells = experiment: Cytotoxicity, MultiTox-Fluor (nephrotoxicity); assay type: cell-based; conditions: up to 50 µM
Source text: as §2

[3] = tested on: humanin (HN) expression in SH-SY5Y cells; experiment: Humanin ELISA in SH-SY5Y cell lysate; assay type: cell-based, human; conditions: 200 nM, 24 h
Method: as §1

SH-SY5Y cells = experiment: Cytotoxicity, MultiTox-Fluor (neurotoxicity); assay type: cell-based, human; conditions: up to 50 µM
Source text: as §2

Sequence of hERG potassium channel (Q12809 whole entry): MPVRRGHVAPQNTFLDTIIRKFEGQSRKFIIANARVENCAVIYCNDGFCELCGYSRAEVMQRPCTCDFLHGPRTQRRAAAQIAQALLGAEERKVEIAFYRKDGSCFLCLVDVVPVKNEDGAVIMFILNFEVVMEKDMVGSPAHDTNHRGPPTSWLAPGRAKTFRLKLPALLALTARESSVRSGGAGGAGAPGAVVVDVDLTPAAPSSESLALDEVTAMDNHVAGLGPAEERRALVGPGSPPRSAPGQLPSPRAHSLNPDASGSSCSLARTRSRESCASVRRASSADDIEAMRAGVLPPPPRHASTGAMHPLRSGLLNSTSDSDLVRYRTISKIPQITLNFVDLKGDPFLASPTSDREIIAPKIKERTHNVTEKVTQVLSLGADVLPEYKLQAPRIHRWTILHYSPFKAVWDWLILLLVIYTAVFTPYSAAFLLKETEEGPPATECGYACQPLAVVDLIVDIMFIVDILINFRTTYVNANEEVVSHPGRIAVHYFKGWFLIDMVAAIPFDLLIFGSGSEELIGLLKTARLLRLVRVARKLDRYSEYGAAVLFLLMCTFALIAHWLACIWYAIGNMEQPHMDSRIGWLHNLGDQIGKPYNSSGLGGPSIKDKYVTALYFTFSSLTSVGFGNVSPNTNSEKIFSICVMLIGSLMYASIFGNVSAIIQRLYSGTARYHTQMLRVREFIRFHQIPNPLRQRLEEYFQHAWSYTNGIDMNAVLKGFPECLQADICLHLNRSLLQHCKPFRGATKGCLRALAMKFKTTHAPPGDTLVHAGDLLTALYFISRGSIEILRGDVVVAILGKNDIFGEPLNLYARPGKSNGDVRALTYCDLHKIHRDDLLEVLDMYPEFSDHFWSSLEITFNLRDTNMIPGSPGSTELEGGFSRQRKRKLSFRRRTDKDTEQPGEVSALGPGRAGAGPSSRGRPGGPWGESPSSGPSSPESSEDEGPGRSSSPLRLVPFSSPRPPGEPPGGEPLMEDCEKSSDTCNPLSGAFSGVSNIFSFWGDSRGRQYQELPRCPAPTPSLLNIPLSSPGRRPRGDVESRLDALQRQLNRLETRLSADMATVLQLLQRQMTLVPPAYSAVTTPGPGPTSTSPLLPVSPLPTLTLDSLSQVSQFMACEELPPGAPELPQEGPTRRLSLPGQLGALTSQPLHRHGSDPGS

Cc1sc2c(c1C)C(c1ccc(Cl)cc1)=N[C@@H](CC(=O)OC1CC1)c1nnc(C)n1-2 [DDL-357]
EC50 (hERG potassium channel): > 100 µM
Aβ1-42 in brain [1]: the difference did not reach significance
sCLU levels in the hippocampus [1]: significant increase
Ctox (HEPG2 cells): ≥ 50 µM
sirtuin 1 (SirT1) expression [2]: significantly increased expression
Barnes maze performance (latency to escape hole) (3xTg-AD mice): performed better overall during both the training and probe phases
Ctox (HEK 293 T cells): ≥ 50 µM
humanin (HN) expression [3]: significantly increased expression
Ctox (SH-SY5Y cells): ≥ 50 µM
